Assay results published in US7534768B2, “Treatment of DNA viral infections” (Henderson Morely Research and Development Ltd., priority 2000, dated 2009).
Where two headings read alike, the source gives them in different places.

How the values were obtained:
[1] = tested on: Type 1 herpes simplex strain HFEM; assay: Inhibition of hsv1 in infected Vero cells (Example 1); type: cell-based, herpes simplex virus; conditions: Human alphaherpesvirus 1, Vero; for inhibition at 1000 µg/mL: frusemide 1 mg/ml, digoxin 30 mcg/ml
Experimental: . Culture and assay methods follow those described by Lennette and Schmidt (1979) for herpes simplex virus and Vero cells with minor modifications.
Type 1 herpes simplex strain HFEM is a derivative of the Rockerfeller strain HF (Wildy 1955), and Type 2 herpes simplex strain 3345, a penile isolate (Skinner et al 1977) were used as prototype strains. These prototypes were stored at −80° C. until needed.
African Green Monkey kidney cells (vero) were obtained from the National Institute of Biological Standards and Control UK and were used as the only cell line for all experiments in the examples.
Cells and viruses were maintained on Glasgows modified medium supplemented with 10% foetal bovine serum.

[2] = tested on: type 2 herpes simplex strain 3345; assay: Inhibition of hsv2 replication in African green monkey kidney cells (Example 3); type: cell-based, herpes simplex virus; conditions: for inhibition at 15 µg/mL: Digoxin 15 mcg/ml; for inhibition at 15 µg/mL / inhibition at 30 µg/mL: Frusemide 0 mg/ml; for inhibition at 30 µg/mL: Digoxin 30 mcg/ml; for Inhibition of virus replication / inhibition at 500 µg/mL: Digoxin 0 mcg/ml; for Inhibition of virus replication: Frusemide 1.0 mg.ml; for inhibition at 500 µg/mL: Frusemide 0.5 mg/ml, read-out: Inhibition of virus replication
Text: The compositions were applied to different types of vero cells (African green monkey kidney cells and […]) and infected with type 2 herpes simplex virus (strains 3345 and 180) at low, intermediate, and high multiplicities of infection (M0I). Inhibition of virus replication was scored on the scale:
The following results were obtained using African green monkey kidney cells and type 2 herpes simplex strain 3345: […]

[3] = cited from earlier work
[4] = Human alphaherpesvirus 2, read-out: Inhibition of virus replication, HIGH M0I HSV2
[5] = Human alphaherpesvirus 2, read-out: Inhibition of virus replication, INT. M0I HSV2
[6] = Human alphaherpesvirus 2, read-out: Inhibition of virus replication, LOW M0I HSV2

C[C@H]1O[C@@H](O[C@H]2[C@@H](O)C[C@H](O[C@H]3[C@@H](O)C[C@H](O[C@H]4CC[C@@]5(C)[C@H](CC[C@@H]6[C@@H]5C[C@@H](O)[C@]5(C)[C@@H](C7=CC(=O)OC7)CC[C@]65O)C4)O[C@@H]3C)O[C@@H]2C)C[C@H](O)[C@@H]1O [digoxin]
inhibition at 30 µg/mL ([1]; read-out: Inhibition of hsv1, Multiplicity of infection High, frusemide 1 mg/ml, digoxin 30 mcg/ml): 0% | inhibition at 30 µg/mL ([1]; read-out: Inhibition of hsv1, Multiplicity of infection Low, frusemide 1 mg/ml, digoxin 30 mcg/ml): 40% | inhibition at 30 µg/mL ([1]; read-out: Inhibition of hsv1, Multiplicity of infection Medium, frusemide 1 mg/ml, digoxin 30 mcg/ml): 20% | inhibition at 15 µg/mL [2, 4]: 0% | inhibition at 30 µg/mL [2, 4]: 0% | inhibition at 15 µg/mL [2, 5]: 0% | inhibition at 30 µg/mL [2, 5]: 20% | inhibition at 15 µg/mL [2, 6]: 0% | inhibition at 30 µg/mL [2, 6]: 60% | solubility ([3]; in diluted (50%) alcohol and in chloroform): slightly soluble | solubility ([3]; in pyridine): freely soluble | solubility ([3]; in water and in ether): practically insoluble

NS(=O)(=O)c1cc(C(=O)O)c(NCc2ccco2)cc1Cl [frusemide, 4-chloro-N-furfuryl-5-sulfamoylanthranilic acid]
inhibition at 1000 µg/mL ([1]; Multiplicity of infection High): 0% | inhibition at 1000 µg/mL ([1]; Multiplicity of infection Low): 20% | inhibition at 1000 µg/mL ([1]; Multiplicity of infection Medium): 20% | Inhibition of virus replication ([2]; HIGH M0I HSV2): ++ (40% inhibition) | inhibition at 500 µg/mL ([2]; Human alphaherpesvirus 2, HIGH M0I HSV2): 0% | inhibition at 500 µg/mL ([2]; Human alphaherpesvirus 2, INT. M0I HSV2): 20% | inhibition at 500 µg/mL ([2]; Human alphaherpesvirus 2, LOW M0I HSV2): 20% | Inhibition of virus replication ([2]; INT. M0I HSV2): +++ (60% inhibition) | Inhibition of virus replication ([2]; LOW M0I HSV2): +++ (60% inhibition)
